Results reported in PubChem BioAssay (NCI).
“And” between values parts separate entries of the source, which are not always exact repeats. Equal values may be shown once.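 Protocol summary: plate cells (96-well), add compound at 5 concentrations, incubate 48 h, interpolate endpoints linearly. GI50: concentration for 50% inhibition of growth. The concentration for full growth arrest is given as TGI.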

What was measured:
Experiment in all cases: NCI tumour cell line growth inhibition, 48 h
[1] = tested on: CCRF-CEM leukemia
[2] = tested on: COLO 205 colon
[3] = tested on: EKVX NSCLC
[4] = tested on: HCC-2998 colon
[5] = tested on: HOP-92 NSCLC
[6] = tested on: NCI-H23 lung
[7] = tested on: OVCAR-5 ovarian
[8] = tested on: SF-295 CNS
[9] = tested on: SF-539 CNS
[10] = tested on: UACC-257 melanoma

Compound | GI50 [1] | TGI [1] [µM] | GI50 [2] [µM] | TGI [2] [µM] | GI50 [3] | TGI [3] [µM] | GI50 [4] [µM] | TGI [4] [µM] | GI50 [5] | TGI [5] [µM] | GI50 [6] | TGI [6] [µM] | GI50 [7] [µM] | TGI [7] [µM] | GI50 [8] | TGI [8] [µM] | GI50 [9] [µM] | TGI [9] [µM] | GI50 [10] [µM] | TGI [10] [µM]
O=C(CC12CC3CC(CC(C3)C1)C2)NCCOCCOCCOCCNC(=O)c1cc2c(o1)C(=O)c1ccccc1C2=O | 2.72 µM | 20.7 | 1.63 | 3.33 | 2.23 µM | 5.29 | 1.89 | 3.6 | 2.45 µM | 7.3 | 0.173 µM | 1.09 | 1.75 | 3.17 | 1.48 µM | 2.85 | 1.44 | 2.78 | 1.22 | 2.52
COc1cc(C(=O)C/C(CCC(=O)Nc2ccc(Cl)cc2C)=N/NC(=O)C(N)=O)ccc1O | – | > 100 | – | > 100 | – | > 100 | – | > 100 | – | > 100 | – | > 100 | – | > 100 | – | > 100 | – | > 100 | – | > 100
O=C1c2cc([N+](=O)[O-])ccc2-c2cccc(F)c21 | – | > 100 | – | > 100 | – | 51.5 | – | > 100 | – | > 100 | – | > 100 | – | > 100 | – | > 100 | – | > 100 | – | > 100
COc1cc2c(Oc3ccc4[nH]c(C)cc4c3F)ccnc2cc1OCC1(N)CC1 | 1.57 µM | 12.9 | 2.29 | 5.61 | 2.79 µM | > 100 | 2.36 | 11.8 | 1.03 µM | 7.11 | – | – | 3.37 | 10.3 | 1.07 µM | 3.92 | 0.315 | 1.81 | 1.67 | 3.63
O=C(Nc1ccc(F)cc1F)c1cc(Br)ccc1O | 3.71 µM | 69.3 | 3.75 | 13.8 | 2.23 µM | 9.73 | 3.75 | 29.9 | 0.593 µM | 3.9 | 2.43 µM | 9.21 | 3.83 | > 100 | 1.9 µM | 3.76 | 2.68 | 10.9 | 1.86 | 7.24
C[C@]12CC[C@H](OCCC#N)CC1=CC[C@@H]1C2CC[C@]2(C)/C(=N/OCCC#N)CCC12 (some centres not stated) | – | > 100 | – | > 100 | – | > 100 | – | > 100 | – | > 64.4 | – | > 100 | – | > 100 | – | > 100 | – | > 100 | – | > 100
O=C(N/N=C/c1ccccc1Cl)c1ccccc1Nc1ccnc(C(F)(F)F)c1 | 0.32 µM | 1.76 | 1.55 | 3.25 | 1.65 µM | 5.94 | 1.74 | 7.24 | 1.69 µM | 6.17 | 1.82 µM | 8.18 | 2.75 | 17.3 | 0.354 µM | 1.33 | 1.6 | 3.7 | 2.61 | 5.58
O=CN1N=C(c2ccc(Cl)cc2)CC1c1cccc(Nc2ccnc3cc(Cl)ccc23)c1 (configuration not stated) | 1.42 µM | 23.1 | 1.43 | 4.51 | 1.59 µM | > 100 | 3.12 | 35.3 | 1.45 µM | > 100 | 1.07 µM | > 100 | 9.42 | > 100 | 0.504 µM | 9.75 | 1.69 | 5.03 | 1.47 | 20.9
CCN=c1cc2sc3cc(NCC)c(C)cc3nc-2cc1C | 0.76 µM | 17.4 | 2.15 | 7.78 | 0.632 µM | 4.53 | 3.5 | 11.8 | 0.652 µM | 5.62 | 0.437 µM | 3.69 | 2.51 | 9.26 | 0.669 µM | 4.81 | 0.434 | 10.2 | 1.66 | 6.55
CSc1nc(NC(=O)O)c(N(C(C)=O)C(=O)O)c(=O)n1C | – | > 100 | – | > 100 | – | > 100 | – | > 100 | – | > 100 | – | – | – | > 100 | – | > 100 | – | > 100 | – | > 100
Cc1cc(-c2nnc(N)nc2-c2ccc(F)cc2)cc(Cl)n1 | 93.1 µM | > 100 | > 100 | > 100 | 59.9 µM | > 100 | > 100 | > 100 | 11.5 µM | > 100 | 54.3 µM | > 100 | > 100 | > 100 | 72.7 µM | > 100 | > 100 | > 100 | 78.9 | > 100
CCn1c(O)c(C=N)c(=O)n(CC)c1=O | – | > 100 | – | > 100 | – | > 100 | – | > 100 | – | > 100 | – | > 100 | – | > 100 | – | > 100 | – | > 100 | – | > 100
COc1ccc(-c2nc3ncccn3c2/C=C/C(=O)c2cc(OC)c(OC)c(OC)c2)cc1 | 4.01 µM | > 100 | 1.7 | 3.07 | 1.61 µM | 6.06 | 1.58 | 2.92 | 1.43 µM | 12 | 1.35 µM | 3.37 | 1.53 | 3.59 | 2.39 µM | 4.83 | 1.36 | 2.95 | 1.88 | 4.81
Cc1cc2cc3c(C)cc(=O)oc3c(C)c2o1 | – | > 100 | – | > 100 | – | > 100 | – | > 100 | – | > 100 | – | > 100 | – | > 100 | – | > 100 | – | > 100 | – | > 100
O=[N+]([O-])c1ccc(N=Nc2c(O)ccc3ccccc23)cc1 | 28.4 µM and > 100 µM | > 100 | – | > 100 | 28 µM and > 100 µM | > 100 | – | > 100 | 32.5 µM and > 100 µM | > 100 | 42.9 µM and > 100 µM | > 100 | – | > 100 | 29.8 µM and > 100 µM | > 100 | – | > 100 | – | > 100
